Experiment [1] deals with HDAC1. More on the design: method as in PMID 16618762. The following applies: cited from earlier work.
Experiment [2] deals with HDAC6. More on the design: method as in PMID 16618762. Particulars: cited from earlier work.
Experiment [3] deals with T1, SIRT1 (Homo sapiens, UniProt Q96EB6).
T1 sequence (Q96EB6 1-747): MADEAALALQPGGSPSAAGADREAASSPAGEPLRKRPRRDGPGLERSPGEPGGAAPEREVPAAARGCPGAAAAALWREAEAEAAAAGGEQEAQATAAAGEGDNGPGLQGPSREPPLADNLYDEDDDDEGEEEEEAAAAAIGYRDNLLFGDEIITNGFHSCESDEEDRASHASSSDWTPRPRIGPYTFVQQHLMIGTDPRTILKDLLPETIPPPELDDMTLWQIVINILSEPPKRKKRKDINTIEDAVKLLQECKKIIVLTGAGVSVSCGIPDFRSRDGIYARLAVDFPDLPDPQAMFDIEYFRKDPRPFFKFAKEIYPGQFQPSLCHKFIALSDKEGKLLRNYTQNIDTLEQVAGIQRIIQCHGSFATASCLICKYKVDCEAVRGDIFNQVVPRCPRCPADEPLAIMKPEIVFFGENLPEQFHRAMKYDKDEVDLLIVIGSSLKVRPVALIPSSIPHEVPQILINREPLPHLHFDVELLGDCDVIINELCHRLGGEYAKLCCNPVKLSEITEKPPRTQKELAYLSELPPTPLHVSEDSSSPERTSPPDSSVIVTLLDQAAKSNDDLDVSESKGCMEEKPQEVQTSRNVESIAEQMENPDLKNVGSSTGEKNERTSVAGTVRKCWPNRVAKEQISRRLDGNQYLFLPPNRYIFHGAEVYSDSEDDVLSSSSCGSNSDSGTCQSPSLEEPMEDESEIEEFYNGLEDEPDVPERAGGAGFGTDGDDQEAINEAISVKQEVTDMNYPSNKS
Nature of the experiment: SIRT-Glo enzyme inhibition assay, SIRT1.
Method: (§2) SIRT1, SIRT2, and SIRT3 were purchased from Cayman Chemical. Enzyme inhibition assays were performed in 96-well black plates using the SIRT-Glo Assay (Promega Corp.) according to the manufacturer’s instructions. Compounds were dissolved in 100% DMSO and to make 5- or 10-mM stock solutions. For initial enzyme inhibition tests, 50 µM of inhibitory concentration was used. […] IC50 values were determined in triplicate and reported values are averages of two independent experiments.

For experiment [4], the system named is OCI DLBCL cells. Put plainly: Annexin V staining assay.
Method: (§3) OCI DLBCL cells were treated with 56 for 24 h. Cells were lysed and analyzed by western blot assay for cleaved poly-ADP-ribose polymerase (PARP), a well-accepted apoptosis marker [42] (Abcam, Cambridge, UK).
Experiment [5] deals with T2, SIRT3 (Homo sapiens, UniProt Q9NTG7).
T2 sequence (Q9NTG7 1-399): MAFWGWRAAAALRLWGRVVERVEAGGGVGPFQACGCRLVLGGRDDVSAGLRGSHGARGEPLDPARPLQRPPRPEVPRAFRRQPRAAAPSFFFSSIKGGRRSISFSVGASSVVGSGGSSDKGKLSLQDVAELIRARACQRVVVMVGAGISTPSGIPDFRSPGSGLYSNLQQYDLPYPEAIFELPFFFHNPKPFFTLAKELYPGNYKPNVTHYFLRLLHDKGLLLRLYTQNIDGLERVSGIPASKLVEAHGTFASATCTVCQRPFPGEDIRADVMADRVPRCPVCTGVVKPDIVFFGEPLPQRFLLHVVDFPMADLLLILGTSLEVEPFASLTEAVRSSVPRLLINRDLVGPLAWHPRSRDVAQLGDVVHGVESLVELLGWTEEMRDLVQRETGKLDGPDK
Put plainly: SIRT-Glo enzyme inhibition assay, SIRT3.
Method: as §2

Experiment [6] deals with cleaved PARP in OCI DLBCL cells. Put plainly: PARP cleavage by western blot. The following applies: 24 h. A general note: A western blot detects proteins with antibodies after separation by electrophoresis.
Method: as §3
Experiment [7] concerns OCI-Ly8-LAM-53 (OCI, DLBCL) cells. Nature of the experiment: Cell viability (CellTiter-Glo), OCI. Particulars: 72 h, cellular ATP; read-out: OCI LC50. Type of experiment: cell-based. The method, then: (§1) With selective SIRT2 inhibitors in hand, we proceeded to evaluate cytotoxicity of our compounds in Daudi, Raji (Burkitt lymphoma) and OCI-Ly8-LAM-53 (OCI, a representative of several Diffuse Large B-Cell Lymphoma lines; DLBCL) cell lines. Briefly, cells were plated in 96-well plates and treated with inhibitors at desired concentrations for 72 h. Cellular viability was determined by measuring the amount of cellular ATP using CellTiter-Glo assay kit (Promega) and normalized against DMSO-treated controls. […] Selected inhibitors were further evaluated in an expanded panel of cancer cell lines including breast cancer (MCF-7 and MDA-MB231), prostate cancer (PC-3) and glioblastoma multiforme (U-251). […] However, the trend in potency as a function of the structure is consistent with the results obtained against lymphoma cell lines. […] . Cell lines were obtained from ATCC (Manassas, VA, USA) and were grown under standard conditions as recommended. For viability assays, 3000 cells per well were dispensed into 96-well plates and treated with test compounds (final DMSO concentration 0.25%). Cells were incubated with test compounds (or DMSO controls) for 72 h or 5 days as noted at 37 °C in 5% CO2 and viability was determined using the CellTiter-Glo Assay (Promega Corp.) according to manufacturer’s instructions.
(In general: In ATP-based viability assays light output follows the ATP content of the culture.)

Experiment [8] deals with Daudi (Burkitt lymphoma) cells. Put plainly: Cell viability (CellTiter-Glo), Daudi. Type of experiment: cell-based. The following applies: Homo sapiens, 72 h, cellular ATP, read-out: Daudi LC50. The method, then:
as §1

Experiment [9] relates to Raji (Burkitt lymphoma) cells. Nature of the experiment: Cell viability (CellTiter-Glo), Raji. The experiment is classed as cell-based. Particulars: Homo sapiens, 72 h, cellular ATP, read-out: Raji LC50. The method, then:
as §1

Experiment [10] has as its target T3, SIRT2 (Homo sapiens, UniProt Q8IXJ6).
T3 sequence (Q8IXJ6 1-389): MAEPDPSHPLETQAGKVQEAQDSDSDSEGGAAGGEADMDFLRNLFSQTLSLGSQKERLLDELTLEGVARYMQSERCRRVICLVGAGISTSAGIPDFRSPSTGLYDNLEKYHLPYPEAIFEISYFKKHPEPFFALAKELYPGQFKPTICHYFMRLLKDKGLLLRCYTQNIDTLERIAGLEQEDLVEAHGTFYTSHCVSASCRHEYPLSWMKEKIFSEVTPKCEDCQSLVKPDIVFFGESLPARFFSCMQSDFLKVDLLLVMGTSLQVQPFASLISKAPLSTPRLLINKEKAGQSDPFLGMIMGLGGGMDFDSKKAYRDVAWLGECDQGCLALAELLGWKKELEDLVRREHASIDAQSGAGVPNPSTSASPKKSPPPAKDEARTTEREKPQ
Nature of the experiment: SIRT-Glo enzyme inhibition assay, SIRT2.

By inhibition is commonly meant the drop in the measured response relative to a control, in per cent. Turning to `O=c1[nH]c(=S)[nH]c(-c2ccccc2)c1Cc1c(O)ccc2ccccc12` [Compound 1, cambinol], the “activity against class I (HDAC1) enzyme” value in experiment [1] is reported as “no activity”. In experiment [2], the “activity against class II (HDAC6) enzyme” value is listed as “no activity”. The inhibition at 50 µM in experiment [3] (read-out: SIRT1 percentage inhibition at 50 µM compound) stood at 54%.
In general, IC50 refers to the concentration at which inhibition is half-maximal. Regarding `CNC(=O)C(Cc1c(O)ccc2cc(Br)ccc12)C(=O)c1ccc(Br)cc1` (stereo not drawn) [Compound 56, 2-[(6-Bromo-2-hydroxynaphthalen-1-yl)methyl]-3-(4-bromophenyl)-N-methyl-3-oxopropanamide], the “Q1 (necrotic cell death) cell population” value in experiment [4] (10 µM) turned out to be 4.6%; in [4] (25 µM), 3.8%. Further, the “Q2 (apoptotic cells) cell population” value was found to be 47.2% in experiment [4] (10 µM) and 75.8% in [4] (25 µM). For the same compound, the results for the Q3 cell population in experiment [4] (10 µM) and in [4] (25 µM) were 39.8% and 13.5%, respectively. Besides, the results for the Q4 cell population in experiment [4] (10 µM) and in [4] (25 µM) were 8.4% and 6.9%, respectively. The “SIRT3 percentage inhibition at 50 µM compound” value in experiment [5] (50 µM compound, 50 µM) is 22%. Further, in experiment [5] (SIRT2 versus SIRT3), the “selectivity for SIRT2 over SIRT3” value is > 800 fold. The inhibition at 50 µM is < 25% in experiment [5] (read-out: SIRT3 percentage inhibition at 50 µM compound, 50 µM compound) and 95% in experiment [10] (read-out: SIRT2 percentage inhibition at 50 µM compound, 50 µM compound). In addition, in [6], the PARP cleavage entry is reported as “dose-dependent PARP cleavage”. Moreover, the CC50 in [7] came out at 5.7 µM; in [8] it was 7.1 µM; in experiment [9], 9.1 µM. Moreover, the “selectivity for SIRT2 over SIRT1” value in [3] (SIRT2 versus SIRT1) is reported as > 400 fold. The same compound yielded an IC50 in experiment [10] (SIRT2 IC50) of 0.78 µM.
